From patent US12246036B2, “Composition for use in the prevention and in the treatment of iron deficiency” (PHARMANUTRA S.P.A., priority 2017, dated 2025)

What was measured:
[1] = Dilution test of iron compositions in sterile PBS and cell culture medium (dissolution properties); format: physicochemical; details: for appearance after initial ten-fold dilution: 3 mg/ml of iron, PBS and medium; for appearance after further ten-fold dilution: 300 micrograms/ml of iron
Method: (§1) The iron content of the compounds (with the exception of the vitamin D and the sucrosomial matrix) was 30 mg/ml. A 1:100 dilution was performed for all of the compounds in sterile PBS in order to obtain an iron concentration of 300 micrograms/ml. […] The final iron concentration used in the experiments has been described elsewhere (Barisani et al. “Iron overload and gene expression in HepG2 cells: analysis by differential display” FEBS Letters 2000, 469, 208-212). The compounds (initial dilution of […]) were diluted in an incomplete FBS-free medium (RPMI 1640 for the U937 cells, EMEM for the HepG2 cells) with a dilution factor of 1:6 for a final iron concentration of 50 micrograms/ml. A test was conducted to assess the effect of the compounds on the cell cultures: induced FlepG2 and U937 were seeded a with a cell density of 650,000 cells/ml in 6 wells (final volume 1.5 ml/well). After 24 hours the medium was replaced with a new FBS-free (incomplete) one containing 50 µg/ml of iron and after 24 hours the cells were macroscopically checked (visual inspection using a microscope).
Before the cells were treated with the selected compounds, they were tested to assess their dissolution properties. The compounds were diluted in sterile PBS and in the standard cell culture medium (EMEM).

[2] = system: U937 cells; details: 50 micrograms/ml of iron, 24 hours
Method: as §1

[3] = system: hepcidin; assay: Hepcidin produced by LPS-stimulated HepG2 cells in supernatant (ELISA); format: cell-based, human; details: LPS-stimulated HepG2, 18 hours of treatment; combination compared to vitamin D alone or sucrosomial iron alone (FIG. 2)
Method: The HepG2 cells were seeded in 6 wells at a concentration of 650,000 cells/ml (1.5 ml/well). The plates were incubated for 24 hours at 37° C. and 5% CO2 first. Afterwards, the 24-hour medium was replaced with an incomplete EMEM without FEM, containing 40 ng/ml of LPS. A control well was prepared with an LPS-FBS-free incomplete medium. After 20 hours of incubation at 37° C. and 5% CO2, the medium was replaced with the iron treatment solutions (medium containing 50 µg/ml of iron). In the control well, the medium was replaced by an incomplete FBS-free EMEM medium. Another control well without iron was prepared, replacing a container containing LPS with a fresh incomplete FBS-free medium. After 6, 18 and 24 ore, the hours, the supernatants were collected from the wells, centrifugated for 10 minutes at 1000 g, transferred into a new tube and stored a −20° C. for the analysis of hepcidin and CRP. The cells of each well collected were detached using trypsin and counted using Trypan blue with a Bürker counting chamber.

| Compound | appearance after initial ten-fold dilution [1] | appearance after further ten-fold dilution [1] | appearance of the compounds before dilution in PBS / EMEM ([1]; compounds as supplied (30 mg/ml iron)) | effect on the cytoplasmic volume of the cells [2] | hepcidin level/expression in supernatants of HepG2 cells [3] |
| --- | --- | --- | --- | --- | --- |
| O=S(=O)([O-])[O-].[Fe+2] [iron sulphate] | changed the colour (pH) of the medium from red to yellow | moderate colour change | separated in two phases | loss of volume | – |
| O=P([O-])([O-])OP(=O)([O-])[O-].O=P([O-])([O-])OP(=O)([O-])[O-].O=P([O-])([O-])OP(=O)([O-])[O-].[Fe+3].[Fe+3].[Fe+3].[Fe+3] [iron pyrophosphate] | changed the colour (pH) of the medium from red to yellow | no evident colour change | – | – | – |
| vitamin D | no problems | – | – | – | higher |
